A short description of data set [1]: Plasma concentration in SCID mouse xenografted with PTEN-deficient human PC3 cells at 300 mg/kg, po BID measured after 1 hr. The data set is classed as ADME, organism-based, PC-3. Further details: dose 300 mg/kg, route oral; call rule not given here.
Data set [2] is described as follows: Clearance in CB17/ICR-Prkdc SCID mouse at 6 mg/kg, iv. The data set is classed as ADME, organism-based. Further details: dose 6 mg/kg, route intravenous. The settings on record: in vivo.
Data set [3] is described as follows: AUC (0 to infinity) in CB17/ICR-Prkdc SCID mouse at 10 mg/kg, po. The format is ADME, organism-based. Further details: time infinity, dose 10 mg/kg, route oral. The settings on record: plasma.
Data set [4] concerns Nucleic Acid. Briefly: Ratio of drug uptake in plasma to tumor of SCID mouse xenografted with PTEN-deficient human PC3 cells at 300 mg/kg, po BID measured after 0.5 to 24 hrs. The format is ADME, organism-based, PC-3. Further details: dose 300 mg/kg, route oral. The settings on record: in vivo. In general terms: Xenograft models place foreign cells or tissue in a host animal.

Data set [5] has as its system Mus musculus. Briefly: Tlast in CB17/ICR-Prkdc SCID mouse at 6 mg/kg, iv. The format is ADME, organism-based. Further details: dose 6 mg/kg, route intravenous. The settings on record: in vivo.
Data set [6] deals with T1, Phosphatidylinositol 4,5-bisphosphate 3-kinase catalytic subunit beta isoform (Homo sapiens, UniProt P42338). Briefly: Inhibition of human PI3Kbeta-mediated Akt phosphorylation at Ser473 residue expressed in PTEN-deficient human PC3 cells by chemiluminescence assay. The format is cell-based, PC-3.
Data set [7] deals with Serine/threonine-protein kinase mTOR (Homo sapiens, UniProt P42345). Briefly: Inhibition of mTOR.
Data set [8] deals with T1, Phosphatidylinositol 4,5-bisphosphate 3-kinase catalytic subunit beta isoform. Briefly: Inhibition of N-terminus poly-His tagged human PI3Kbeta expressed in baculovirus infected insect […] cells coexpressing p85alpha using PI(4,5)P2 as substrate preincubated with compound for 15 mins measured after 10 mins by HTRF assay. In general terms: Time-resolved FRET reads energy transfer from a long-lived donor to a nearby acceptor.

A short description of data set [9]: Terminal half life in CB17/ICR-Prkdc SCID mouse at 6 mg/kg, iv. The data set is classed as ADME, organism-based. Further details: dose 6 mg/kg, route intravenous. The settings on record: in vivo, read-out: beta t1/2 (converted).
For data set [10], the target named is T1, Phosphatidylinositol 4,5-bisphosphate 3-kinase catalytic subunit beta isoform. Briefly: Inhibition of human PI3Kbeta-mediated Akt phosphorylation at T308 residue expressed in PTEN-deficient human PC3 cells after 2 hrs by Western blot analysis. The format is cell-based, PC-3.
Data set [11] can be described thus: Inhibition of mTORC2-mediated Akt phosphorylation at Ser473 residue in PTEN-deficient human PC3 cells after 2 hrs by Western blot analysis. The settings on record: PC-3, 2 h. The format is cell-based. A general note: In western blotting, separated proteins are transferred to a membrane and probed.
In data set [12] the test system is Mus musculus. Briefly: Inhibition of Akt phosphorylation at T308 residue in SCID mouse bearing human PTEN-deficient PC3 cells at 300 mg/kg, po BID measured after 6 hrs. The settings on record: PC-3, 6 h. The format is functional.
Data set [13] deals with Plasma. Briefly: Plasma concentration in SCID mouse xenografted with PTEN-deficient human PC3 cells at 300 mg/kg, po BID measured after day 4. The format is ADME, organism-based, PC-3. Further details: dose 300 mg/kg, route oral. The settings on record: in vivo.
The test system of data set [14] is Mus musculus. Briefly: Toxicity in SCID mouse bearing PTEN-deficient human PC3 cells assessed as weight loss at 300 mg/kg, po BID for 9 days. The format is organism-based, PC-3. Further details: dose 300 mg/kg, route oral. The settings on record: in vivo, 216 h.
Data set [15] in a line: Drug uptake in tumor of SCID mouse xenografted with PTEN-deficient human PC3 cells at 300 mg/kg, po BID measured after 0.5 hrs. The data set is classed as ADME, organism-based, Neoplasm, PC-3. Further details: dose 300 mg/kg, route oral. The settings on record: read-out: Drug uptake.
A short description of data set [16]: Drug uptake in tumor of SCID mouse xenografted with PTEN-deficient human PC3 cells at 300 mg/kg, po BID measured after 6 hrs. The data set is classed as ADME, organism-based, Neoplasm, PC-3. Further details: dose 300 mg/kg, route oral. The settings on record: read-out: Drug uptake.
In data set [17] the target is Cytochrome P450 3A4 (Homo sapiens, UniProt P08684). Briefly: Inhibition of human recombinant CPY3A4.
The nature of data set [18]: Drug metabolism in mouse liver microsomes. The data set is classed as ADME, Microsome. The settings on record: read-out: Drug metabolism.
A short description of data set [19]: AUC (0 to Tlast) in CB17/ICR-Prkdc SCID mouse at 10 mg/kg, po. Further details: dose 10 mg/kg, route oral. The data set is classed as ADME, organism-based. The settings on record: plasma.
Data set [20] can be described thus: AUC (0 to infinity) in CB17/ICR-Prkdc SCID mouse at 6 mg/kg, iv. The format is ADME, organism-based. Further details: time infinity, dose 6 mg/kg, route intravenous. The settings on record: plasma.
Data set [21] can be described thus: Drug uptake in tumor of SCID mouse xenografted with PTEN-deficient human PC3 cells at 300 mg/kg, po BID measured after 3 hrs. The data set is classed as ADME, organism-based, Neoplasm, PC-3. Further details: dose 300 mg/kg, route oral. The settings on record: read-out: Drug uptake.
Data set [22] is described as follows: Plasma concentration in SCID mouse xenografted with PTEN-deficient human PC3 cells at 300 mg/kg, po BID measured after 0.5 hrs. The data set is classed as ADME, organism-based, PC-3. Further details: dose 300 mg/kg, route oral.

pIC50: −log10 of the molar value.

T1 sequence (P42338 whole entry, canonical isoform): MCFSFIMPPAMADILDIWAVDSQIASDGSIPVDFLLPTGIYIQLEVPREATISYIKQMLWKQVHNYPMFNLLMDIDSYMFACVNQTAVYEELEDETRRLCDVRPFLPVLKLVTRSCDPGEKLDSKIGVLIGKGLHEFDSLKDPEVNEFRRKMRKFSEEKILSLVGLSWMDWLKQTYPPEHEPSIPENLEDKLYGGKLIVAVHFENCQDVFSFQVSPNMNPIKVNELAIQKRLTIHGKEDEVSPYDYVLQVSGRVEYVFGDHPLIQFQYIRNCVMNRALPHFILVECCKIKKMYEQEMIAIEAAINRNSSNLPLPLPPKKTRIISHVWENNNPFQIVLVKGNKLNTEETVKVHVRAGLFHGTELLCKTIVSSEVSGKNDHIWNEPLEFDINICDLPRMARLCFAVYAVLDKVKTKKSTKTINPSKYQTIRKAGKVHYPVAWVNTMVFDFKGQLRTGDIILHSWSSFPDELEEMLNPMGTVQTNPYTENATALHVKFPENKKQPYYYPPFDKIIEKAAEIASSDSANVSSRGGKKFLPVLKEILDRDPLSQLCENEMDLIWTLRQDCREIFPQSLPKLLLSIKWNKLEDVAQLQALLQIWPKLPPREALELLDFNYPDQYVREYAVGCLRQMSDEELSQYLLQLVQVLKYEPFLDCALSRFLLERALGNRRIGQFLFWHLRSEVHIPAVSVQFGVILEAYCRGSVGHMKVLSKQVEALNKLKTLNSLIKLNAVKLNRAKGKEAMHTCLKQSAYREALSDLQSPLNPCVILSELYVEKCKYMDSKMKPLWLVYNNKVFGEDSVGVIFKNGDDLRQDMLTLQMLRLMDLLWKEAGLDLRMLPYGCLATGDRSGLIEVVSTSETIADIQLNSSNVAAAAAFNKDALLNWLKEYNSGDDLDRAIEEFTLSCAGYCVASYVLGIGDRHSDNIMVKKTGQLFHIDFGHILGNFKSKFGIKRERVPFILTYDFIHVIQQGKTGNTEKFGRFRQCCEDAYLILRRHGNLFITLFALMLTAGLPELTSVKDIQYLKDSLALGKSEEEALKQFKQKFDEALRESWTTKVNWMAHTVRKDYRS
Sequence of Cytochrome P450 3A4 (P08684 whole entry): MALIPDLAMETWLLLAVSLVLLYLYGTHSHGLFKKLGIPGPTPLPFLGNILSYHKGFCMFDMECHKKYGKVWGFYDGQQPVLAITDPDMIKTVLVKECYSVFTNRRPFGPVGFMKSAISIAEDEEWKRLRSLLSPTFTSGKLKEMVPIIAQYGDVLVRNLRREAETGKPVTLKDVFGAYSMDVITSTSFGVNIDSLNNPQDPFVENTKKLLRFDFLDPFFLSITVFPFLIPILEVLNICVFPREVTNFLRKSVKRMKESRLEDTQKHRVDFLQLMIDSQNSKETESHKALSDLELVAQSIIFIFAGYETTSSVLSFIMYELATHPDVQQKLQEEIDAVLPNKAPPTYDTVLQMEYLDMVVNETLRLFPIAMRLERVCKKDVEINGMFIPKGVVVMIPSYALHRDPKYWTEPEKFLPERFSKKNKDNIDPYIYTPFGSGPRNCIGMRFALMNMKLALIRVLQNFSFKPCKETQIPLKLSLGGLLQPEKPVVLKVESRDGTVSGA

In turn, `Cn1c(Cc2nc(N3CCOCC3)cc(=O)[nH]2)nc2ccccc21` showed a concentration at 1 h in [1] of 22 µM. In addition, in data set [2], the clearance – broadly, a measure of how efficiently the substance is removed, as volume per time – is 51.7 mL/min/kg. Further, the values for the AUC(0-inf) in data set [3] and in data set [20] were 850 ng·h/mL and 1950 ng·h/mL, respectively. Also, the Ratio in [4] amounted to 1. For the same molecule, the Tlast in data set [5] worked out at 24 h. Also, the pIC50 (usually the negative decadic logarithm of the IC50, by convention in mol/L) was 7.12 in [6]; less than 5.00 in data set [7]; 7.00 in data set [8]; 6.73 in [10]; 7.12 in data set [11]; less than 4.40 in data set [17]. The half-life in data set [9] was 4.4 h. In data set [12], the inhibition in vivo (as a rule, how much of the control response was suppressed) at 300 mg/kg was greater than 50%. Moreover, the Drug uptake result in [13] was “Active”. Moreover, the Activity entry in [14] is reported as “Non-toxic”. Also, the figures for the concentration at 0.5 h in data set [15] and in data set [22] were 13 µM and 28 µM, respectively. In addition, the concentration at 6 h in data set [16] is 3.6 µM. The metabolised in data set [18] stood at 13%. In addition, the exposure AUC(0-t) (in general, exposure summed from dosing to a finite time, without extrapolation to infinity) in data set [19] was 846 ng·h/mL. Further, in [21], the concentration at 3 h came out at 6 µM.

The values above are taken from ChEMBL document CHEMBL2062364, “Discovery and optimization of new benzimidazole- and benzoxazole-pyrimidone selective PI3Kβ inhibitors for the treatment of phosphatase and TENsin homologue (PTEN)-deficient cancers” (J Med Chem, 2012).
